From ChEMBL document CHEMBL3885881, “DrugMatrix”

Species: Rattus norvegicus
Assay: DrugMatrix - Regimen: Daily Repeat
Type: toxicity, organism-based, Sprague-Dawley
Design: regimen Daily Repeat, gender Male, age 6-8 weeks
Details: in vivo, po, route oral GAVAGE, vehicle 100 % WATER; for ABSOLUTE BASOPHIL / ABSOLUTE EOSINOPHIL / ABSOLUTE LYMPHOCYTE / ABSOLUTE MONOCYTE / ABSOLUTE SEGMENTED NEUTROPHIL / BASOPHIL / EOSINOPHIL / ERYTHROCYTE COUNT / HEMATOCRIT / HEMOGLOBIN / LEUKOCYTE COUNT / LYMPHOCYTE / MEAN CORPUSCULAR HEMOGLOBIN / MEAN CORPUSCULAR HEMOGLOBIN CONCENTRATION / MEAN CORPUSCULAR VOLUME / MONOCYTE / NEUTROPHIL / NUCLEATED RED BLOOD CELLS / PLATELET COUNT: tissue Blood; for ALANINE AMINOTRANSFERASE / ALBUMIN / ALKALINE PHOSPHATASE / ASPARTATE AMINOTRANSFERASE / BLOOD UREA NITROGEN / CARBON DIOXIDE / CHLORIDE / CHOLESTEROL / CREATINE PHOSPHOKINASE / CREATININE / GLUCOSE / LACTATE DEHYDROGENASE / LIPASE / PHOSPHORUS / POTASSIUM / SODIUM / TOTAL BILIRUBIN / TOTAL PROTEIN / URIC ACID: tissue Plasma
[1] = 30 mg/kg, 72 h, dose level Low, time 3 day
[2] = 30 mg/kg, 120 h, dose level Low, time 5 day
[3] = 3000 mg/kg, 72 h, dose level High, time 3 day
[4] = 3000 mg/kg, 120 h, dose level High, time 5 day

Structure (SMILES): O=C(O)CC(O)(CC(=O)O)C(=O)O [CITRIC ACID]
- ABSOLUTE BASOPHIL [1]: 0 CELLS/uL
- ABSOLUTE EOSINOPHIL [1]: 0 CELLS/uL
- ABSOLUTE LYMPHOCYTE [1]: 12691.33 CELLS/uL
- ABSOLUTE MONOCYTE [1]: 367.33 CELLS/uL
- ABSOLUTE SEGMENTED NEUTROPHIL [1]: 908 CELLS/uL
- BASOPHIL [1]: 0%
- EOSINOPHIL [1]: 0%
- ERYTHROCYTE COUNT [1]: 5.83 x10E6/uL
- HEMATOCRIT [1]: 37%
- HEMOGLOBIN [1]: 14.67 G/DL
- LEUKOCYTE COUNT [1]: 13.97 x10E3/uL
- LYMPHOCYTE [1]: 91%
- MEAN CORPUSCULAR HEMOGLOBIN [1]: 25.17 pg
- MEAN CORPUSCULAR HEMOGLOBIN CONCENTRATION [1]: 39.67 G/DL
- MEAN CORPUSCULAR VOLUME [1]: 63.43 fL
- MONOCYTE [1]: 2.67%
- NEUTROPHIL [1]: 6.33%
- NUCLEATED RED BLOOD CELLS [1]: 0 /100WBC
- PLATELET COUNT [1]: 1121.33 x10E3/uL
- ALANINE AMINOTRANSFERASE [1]: 54.67 u/L
- ALBUMIN [1]: 4.2 G/DL
- ALKALINE PHOSPHATASE [1]: 442.33 u/L
- ASPARTATE AMINOTRANSFERASE [1]: 93.33 u/L
- BLOOD UREA NITROGEN [1]: 13.33 mg/dL
- CARBON DIOXIDE [1]: 23 mmol/L
- CHLORIDE [1]: 102.33 MEQ/L
- CHOLESTEROL [1]: 85.67 mg/dL
- CREATINE PHOSPHOKINASE [1]: 514.33 u/L
- CREATININE [1]: 0.18 mg/dL
- GLUCOSE [1]: 184.33 mg/dL
- LACTATE DEHYDROGENASE [1]: 173 u/L
- LIPASE [1]: 9.67 u/L
- PHOSPHORUS [1]: 12.77 mg/dL
- POTASSIUM [1]: 6.46 MEQ/L
- SODIUM [1]: 146.53 MEQ/L
- TOTAL BILIRUBIN [1]: 0.2 mg/dL
- TOTAL PROTEIN [1]: 5.97 G/DL
- URIC ACID [1]: 2.5 mg/dL
- ABSOLUTE BASOPHIL [2]: 0 CELLS/uL
- ABSOLUTE EOSINOPHIL [2]: 0 CELLS/uL
- ABSOLUTE LYMPHOCYTE [2]: 16594.33 CELLS/uL
- ABSOLUTE MONOCYTE [2]: 186.67 CELLS/uL
- ABSOLUTE SEGMENTED NEUTROPHIL [2]: 1885.67 CELLS/uL
- BASOPHIL [2]: 0%
- EOSINOPHIL [2]: 0%
- ERYTHROCYTE COUNT [2]: 5.64 x10E6/uL
- HEMATOCRIT [2]: 37.07%
- HEMOGLOBIN [2]: 14.63 G/DL
- LEUKOCYTE COUNT [2]: 18.67 x10E3/uL
- LYMPHOCYTE [2]: 88.67%
- MEAN CORPUSCULAR HEMOGLOBIN [2]: 25.97 pg
- MEAN CORPUSCULAR HEMOGLOBIN CONCENTRATION [2]: 39.47 G/DL
- MEAN CORPUSCULAR VOLUME [2]: 65.7 fL
- MONOCYTE [2]: 1%
- NEUTROPHIL [2]: 10.33%
- NUCLEATED RED BLOOD CELLS [2]: 0 /100WBC
- PLATELET COUNT [2]: 1295.33 x10E3/uL
- ALANINE AMINOTRANSFERASE [2]: 48 u/L
- ALBUMIN [2]: 4.2 G/DL
- ALKALINE PHOSPHATASE [2]: 374.67 u/L
- ASPARTATE AMINOTRANSFERASE [2]: 80.67 u/L
- BLOOD UREA NITROGEN [2]: 18 mg/dL
- CARBON DIOXIDE [2]: 23 mmol/L
- CHLORIDE [2]: 103.67 MEQ/L
- CHOLESTEROL [2]: 77 mg/dL
- CREATINE PHOSPHOKINASE [2]: 316.33 u/L
- CREATININE [2]: 0.18 mg/dL
- GLUCOSE [2]: 154.33 mg/dL
- LACTATE DEHYDROGENASE [2]: 396.33 u/L
- LIPASE [2]: 10.33 u/L
- PHOSPHORUS [2]: 13.53 mg/dL
- POTASSIUM [2]: 6.74 MEQ/L
- SODIUM [2]: 147.27 MEQ/L
- TOTAL BILIRUBIN [2]: 0.2 mg/dL
- TOTAL PROTEIN [2]: 6.03 G/DL
- URIC ACID [2]: 1.4 mg/dL
- ABSOLUTE BASOPHIL [3]: 0 CELLS/uL
- ABSOLUTE EOSINOPHIL [3]: 0 CELLS/uL
- ABSOLUTE LYMPHOCYTE [3]: 12922.33 CELLS/uL
- ABSOLUTE MONOCYTE [3]: 727.33 CELLS/uL
- ABSOLUTE SEGMENTED NEUTROPHIL [3]: 1850.33 CELLS/uL
- BASOPHIL [3]: 0%
- EOSINOPHIL [3]: 0%
- ERYTHROCYTE COUNT [3]: 5.42 x10E6/uL
- HEMATOCRIT [3]: 33.17%
- HEMOGLOBIN [3]: 13.3 G/DL
- LEUKOCYTE COUNT [3]: 15.5 x10E3/uL
- LYMPHOCYTE [3]: 83.67%
- MEAN CORPUSCULAR HEMOGLOBIN [3]: 24.53 pg
- MEAN CORPUSCULAR HEMOGLOBIN CONCENTRATION [3]: 40.1 G/DL
- MEAN CORPUSCULAR VOLUME [3]: 61.2 fL
- MONOCYTE [3]: 4.67%
- NEUTROPHIL [3]: 11.67%
- NUCLEATED RED BLOOD CELLS [3]: 0 /100WBC
- PLATELET COUNT [3]: 1290.67 x10E3/uL
- ALANINE AMINOTRANSFERASE [3]: 49.67 u/L
- ALBUMIN [3]: 4.17 G/DL
- ALKALINE PHOSPHATASE [3]: 428.33 u/L
- ASPARTATE AMINOTRANSFERASE [3]: 78.33 u/L
- BLOOD UREA NITROGEN [3]: 15.67 mg/dL
- CARBON DIOXIDE [3]: 26.67 mmol/L
- CHLORIDE [3]: 103 MEQ/L
- CHOLESTEROL [3]: 70.33 mg/dL
- CREATINE PHOSPHOKINASE [3]: 223 u/L
- CREATININE [3]: 0.2 mg/dL
- GLUCOSE [3]: 155 mg/dL
- LACTATE DEHYDROGENASE [3]: 102.33 u/L
- LIPASE [3]: 9.67 u/L
- PHOSPHORUS [3]: 12.67 mg/dL
- POTASSIUM [3]: 6.48 MEQ/L
- SODIUM [3]: 145.77 MEQ/L
- TOTAL BILIRUBIN [3]: 0.2 mg/dL
- TOTAL PROTEIN [3]: 5.53 G/DL
- URIC ACID [3]: 1.37 mg/dL
- ABSOLUTE BASOPHIL [4]: 0 CELLS/uL
- ABSOLUTE EOSINOPHIL [4]: 62.33 CELLS/uL
- ABSOLUTE LYMPHOCYTE [4]: 16836 CELLS/uL
- ABSOLUTE MONOCYTE [4]: 0 CELLS/uL
- ABSOLUTE SEGMENTED NEUTROPHIL [4]: 2301.67 CELLS/uL
- BASOPHIL [4]: 0%
- EOSINOPHIL [4]: 0.33%
- ERYTHROCYTE COUNT [4]: 5.65 x10E6/uL
- HEMATOCRIT [4]: 36.43%
- HEMOGLOBIN [4]: 14.37 G/DL
- LEUKOCYTE COUNT [4]: 19.2 x10E3/uL
- LYMPHOCYTE [4]: 87.67%
- MEAN CORPUSCULAR HEMOGLOBIN [4]: 25.5 pg
- MEAN CORPUSCULAR HEMOGLOBIN CONCENTRATION [4]: 39.47 G/DL
- MEAN CORPUSCULAR VOLUME [4]: 64.63 fL
- MONOCYTE [4]: 0%
- NEUTROPHIL [4]: 12%
- NUCLEATED RED BLOOD CELLS [4]: 1 /100WBC
- PLATELET COUNT [4]: 1284.33 x10E3/uL
- ALANINE AMINOTRANSFERASE [4]: 50 u/L
- ALBUMIN [4]: 4.2 G/DL
- ALKALINE PHOSPHATASE [4]: 416.67 u/L
- ASPARTATE AMINOTRANSFERASE [4]: 71.67 u/L
- BLOOD UREA NITROGEN [4]: 16.67 mg/dL
- CARBON DIOXIDE [4]: 23.67 mmol/L
- CHLORIDE [4]: 102 MEQ/L
- CHOLESTEROL [4]: 77 mg/dL
- CREATINE PHOSPHOKINASE [4]: 254.67 u/L
- CREATININE [4]: 0.2 mg/dL
- GLUCOSE [4]: 151 mg/dL
- LACTATE DEHYDROGENASE [4]: 91.33 u/L
- LIPASE [4]: 10.33 u/L
- PHOSPHORUS [4]: 13.03 mg/dL
- POTASSIUM [4]: 6.54 MEQ/L
- SODIUM [4]: 144.77 MEQ/L
- TOTAL BILIRUBIN [4]: 0.23 mg/dL
- TOTAL PROTEIN [4]: 5.93 G/DL
- URIC ACID [4]: 1.57 mg/dL
